The text below walks through data of article PMC8136825, “A nucleotide-sensing endonuclease from the Gabija bacterial defense system” (Nucleic Acids Research, 2021).

This assay has as its target T1, GajA (Bacillus cereus, UniProt J8H9C1).
T1 construct: full length residues 1-578, N-terminal 6xHis tag kept (pET28a, NdeI/NotI), expressed in E. coli BL21(DE3), 69 kDa with tag; without GajB
In words: inhibition of lambda955 DNA cleavage, agarose gel densitometry. The format is biochemical. The note with it: 20 nM lambda955 DNA, 200 nM enzyme, 20 mM Tris-HCl pH 9, 1 mM MgCl2, 37 °C, 5 min; allosteric, ATPase-like domain.

T1 sequence (J8H9C1 whole entry, the tested form may be a part): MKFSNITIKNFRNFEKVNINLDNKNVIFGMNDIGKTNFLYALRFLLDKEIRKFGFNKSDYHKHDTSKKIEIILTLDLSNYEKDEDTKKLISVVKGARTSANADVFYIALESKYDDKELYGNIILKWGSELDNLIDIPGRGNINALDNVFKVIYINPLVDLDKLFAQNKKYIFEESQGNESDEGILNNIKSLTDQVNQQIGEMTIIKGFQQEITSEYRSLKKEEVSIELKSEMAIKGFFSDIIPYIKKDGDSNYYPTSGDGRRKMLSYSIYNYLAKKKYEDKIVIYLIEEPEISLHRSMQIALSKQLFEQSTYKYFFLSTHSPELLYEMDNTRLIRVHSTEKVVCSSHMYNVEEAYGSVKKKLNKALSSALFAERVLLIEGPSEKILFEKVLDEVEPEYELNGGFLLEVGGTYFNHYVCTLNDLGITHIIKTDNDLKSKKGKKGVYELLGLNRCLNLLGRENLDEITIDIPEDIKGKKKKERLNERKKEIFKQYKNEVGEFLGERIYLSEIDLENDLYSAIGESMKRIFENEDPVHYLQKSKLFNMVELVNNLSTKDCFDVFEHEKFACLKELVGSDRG

Consider `Nc1ncnc2c1ncn2[C@@H]1O[C@H](COP(=O)(O)OP(=O)(O)O)[C@@H](O)[C@H]1O` [ADP], for which the inhibition result was “strongly inhibited by all NTP and dNTP, even ADP, while AMP had no significant effect”.
